In patent US5612174A, “Photographic yellow dye-forming couplers and silver halide color photographic materials containing the same” (Fuji Photo Film Co., Ltd., priority 1994, dated 1997):
Blank lines part the entries; values can stand above or below the compound they belong to.

What was measured:
[1] = Solubility of yellow couplers in 100 ml of ethyl acetate at 25° C.; format: physicochemical; conditions: for Solubility: 25° C.; for solubility in ethyl acetate relative to RY-1 and RY-2: in words
Procedure: Test for Solubility of Yellow Couplers in Organic Solvents:
A test was conducted in order to determine what grams of the yellow coupler shown in Table A below are dissolved in 100 ml of ethyl acetate at 25° C. The yellow coupler was gradually added to 100 ml of ethyl acetate by 0.1 g at a time and stirred for 5 minutes, whereupon the amount not dissolved was referred to as a saturation point. The results are shown in Table A. As comparative couplers, used were the following RY-1 and RY-2. [drawing 15]
Solubility of Couplers in 100 ml of
Ethyl Acetate (at 25° C.)

[2] = Solubility of yellow couplers in high boiling point organic solvents Solv-2, Solv-3 and Solv-9; format: physicochemical; conditions: in words
Procedure: The same test as above was conducted to determine the solubility of the yellow couplers in known high boiling point organic solvents Solv-2, Solv-3 and Solv-9 mentioned below.

SMILES: CCC=CCC=CCC=CCCCCCCCC(=O)Nc1ccc(Cl)c(NC(=O)C(C(=O)C(C)(C)C)N2C(=O)NC(C)(C)C2=O)c1 (centres unmarked) [Y-3]
solubility in known high boiling point organic solvents relative to RY-1 and RY-2 [2]: much larger solubility in such solvents than the known yellow couplers of RY-1 and RY-2 | Solubility [1]: 21.4 g/100 ml | solubility in ethyl acetate relative to RY-1 and RY-2 [1]: much larger solubility in ethyl acetate than the known yellow couplers of RY-1 and RY-2

SMILES: CCCCCCCCC=CCCCCCCCC(=O)Nc1ccc(OC)c(NC(=O)C(C(=O)C(C)(C)C)N2C(=O)NC(C)(C)C2=O)c1 (centres unmarked) [Y-13]
solubility in known high boiling point organic solvents relative to RY-1 and RY-2 [2]: much larger solubility in such solvents than the known yellow couplers of RY-1 and RY-2 | Solubility [1]: 20.8 g/100 ml | solubility in ethyl acetate relative to RY-1 and RY-2 [1]: much larger solubility in ethyl acetate than the known yellow couplers of RY-1 and RY-2

SMILES: CCCCCC=CCC=CCCCCCCCC(=O)Nc1ccc(Cl)c(NC(=O)C(C(=O)C(C)(C)C)N2C(=O)NC(C)(C)C2=O)c1 (centres unmarked) [Y-2]
solubility in known high boiling point organic solvents relative to RY-1 and RY-2 [2]: much larger solubility in such solvents than the known yellow couplers of RY-1 and RY-2 | Solubility [1]: 21.2 g/100 ml | solubility in ethyl acetate relative to RY-1 and RY-2 [1]: much larger solubility in ethyl acetate than the known yellow couplers of RY-1 and RY-2

SMILES: CCCCCCCCC=CCCCCCCCC(=O)Nc1ccc(Cl)c(NC(=O)C(C(=O)C(C)(C)C)N2C(=O)NC(C)(C)C2=O)c1 (centres unmarked) [Y-1]
solubility in known high boiling point organic solvents relative to RY-1 and RY-2 [2]: much larger solubility in such solvents than the known yellow couplers of RY-1 and RY-2 | Solubility [1]: 21.0 g/100 ml | solubility in ethyl acetate relative to RY-1 and RY-2 [1]: much larger solubility in ethyl acetate than the known yellow couplers of RY-1 and RY-2

Continued, values first:

Solubility [1]: 15.8 g/100 ml
SMILES: CCC(Oc1ccc(C(C)(C)CC)cc1C(C)(C)CC)C(=O)Nc1ccc(Cl)c(NC(=O)C(C(=O)C(C)(C)C)N2C(=O)NC(C)(C)C2=O)c1 (centres unmarked) [RY-1, reference compound]

Solubility [1]: 8.5 g/100 ml
SMILES: CCCCCCCCCCCCCCCCCC(=O)Nc1ccc(Cl)c(NC(=O)C(C(=O)C(C)(C)C)N2C(=O)NC(C)(C)C2=O)c1 (centres unmarked) [RY-2, reference compound]
